We go through 9 molecules from ChEMBL document CHEMBL5104192, “Late-Stage Functionalization with Cysteine Staples Generates Potent and Selective Melanocortin Receptor-1 Agonists” (J Med Chem, 2022).

Experiment [1] is filed under the species Homo sapiens. Nature of the experiment: Selectivity ratio of Ki for human MC3R to Ki for human MC1R.
The target of experiment [2] is T1, Melanocyte-stimulating hormone receptor (Homo sapiens, UniProt Q01726). The experiment in a line: Displacement of [125I]-NDP-alpha-MSH from human MC1R expressed in HEK2936E cell membrane measured after 16 to 23 hrs by 1450 microbeta trilux scintillation proximity assay. The experiment is classed as cell membranes.
T1 sequence (Q01726 whole entry): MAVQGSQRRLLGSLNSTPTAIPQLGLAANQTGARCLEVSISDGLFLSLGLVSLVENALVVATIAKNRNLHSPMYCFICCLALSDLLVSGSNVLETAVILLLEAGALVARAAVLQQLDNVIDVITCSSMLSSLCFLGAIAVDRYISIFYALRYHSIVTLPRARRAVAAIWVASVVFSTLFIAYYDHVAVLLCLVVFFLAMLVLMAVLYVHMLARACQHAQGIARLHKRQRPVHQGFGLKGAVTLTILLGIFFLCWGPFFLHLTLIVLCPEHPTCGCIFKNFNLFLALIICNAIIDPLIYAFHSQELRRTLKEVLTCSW
The species named for experiment [3] is Homo sapiens. The experiment in a line: Selectivity ratio of Ki for human MC4R to Ki for human MC1R.
Experiment [4] has as its target T2, Melanocortin receptor 3 (Homo sapiens, UniProt P41968). The experiment in a line: Displacement of [125I]-NDP-alpha-MSH from human MC3R expressed in HEK2936E cell membrane measured after 16 to 23 hrs by 1450 microbeta trilux scintillation proximity assay. In kind it is cell membranes.
Experiment [5] deals with T3, Melanocortin receptor 4 (Homo sapiens, UniProt P32245). The experiment in a line: Displacement of [125I]-NDP-alpha-MSH from human MC4R expressed in HEK2936E cell membrane measured after 16 to 23 hrs by 1450 microbeta trilux scintillation proximity assay. In kind it is cell membranes.
T3 sequence (P32245 whole entry): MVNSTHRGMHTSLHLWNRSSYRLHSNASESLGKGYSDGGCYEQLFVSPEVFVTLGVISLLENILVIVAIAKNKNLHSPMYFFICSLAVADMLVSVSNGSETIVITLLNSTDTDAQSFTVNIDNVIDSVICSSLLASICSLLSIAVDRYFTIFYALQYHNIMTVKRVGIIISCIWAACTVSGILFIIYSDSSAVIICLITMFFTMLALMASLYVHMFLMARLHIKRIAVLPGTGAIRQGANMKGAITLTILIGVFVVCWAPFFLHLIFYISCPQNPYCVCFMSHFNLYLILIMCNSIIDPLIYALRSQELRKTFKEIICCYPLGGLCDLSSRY
The species entered for experiment [6] is Homo sapiens. The experiment in a line: Selectivity ratio of EC50 for human MC4R to EC50 for human MC1R.
The species named for experiment [7] is Homo sapiens. The experiment in a line: Selectivity ratio of EC50 for human MC3R to EC50 for human MC1R.
The target in experiment [8] is T2, Melanocortin receptor 3. Nature of the experiment: Agonist activity at human MC3R expressed in HEK2936E cells assessed as cAMP production in presence of IBMX by time resolved fluorescence assay. In kind it is functional, cell-based.
Experiment [9] deals with T1, Melanocyte-stimulating hormone receptor. Nature of the experiment: Agonist activity at human MC1R expressed in HEK2936E cells assessed as cAMP production in presence of IBMX by time resolved fluorescence assay. The experiment is classed as functional, cell-based. The conditions noted are these: read-out: pEC50 (converted).
Experiment [10] addresses T3, Melanocortin receptor 4. The experiment in a line: Agonist activity at human MC4R expressed in HEK2936E cells assessed as cAMP production in presence of IBMX by time resolved fluorescence assay. In kind it is functional, cell-based.

*1 amine or outer side, *2 acyl side, *3 side chain or, on linkers, in order; H or OH if unused. Where a SMILES comes first, the peptide text is derived from it. Bridges are numbered along the chain shown (N, C = ends). [ ]: non-standard residue; d: D form. X9 = O=C(NCCOCCOCCOCCNC(=O)OCC1C2CCc3nnn(CC(=O)N4CCCC[C@H]4C4(O)CN(C(=O)c5ccc(F)c(F)c5Nc5ccc(I)cc5F)C4)c3CCC21)OCC1C2CCc3c([*:1])nnc([*:2])c3CCC21; X8 = NCCNC(=O)OCC1C2CCc3c([*:1])nnc([*:2])c3CCC21; mXylylene = c1cc(C[*:1])cc(C[*:2])c1; oXylylene = c1ccc(C[*:2])c(C[*:1])c1; pXylylene = c1cc(C[*:2])ccc1C[*:1]; Nle = CCCC[C@H](N)C(=O)O Some results are limits rather than exact numbers.

T2 sequence (P41968 whole entry): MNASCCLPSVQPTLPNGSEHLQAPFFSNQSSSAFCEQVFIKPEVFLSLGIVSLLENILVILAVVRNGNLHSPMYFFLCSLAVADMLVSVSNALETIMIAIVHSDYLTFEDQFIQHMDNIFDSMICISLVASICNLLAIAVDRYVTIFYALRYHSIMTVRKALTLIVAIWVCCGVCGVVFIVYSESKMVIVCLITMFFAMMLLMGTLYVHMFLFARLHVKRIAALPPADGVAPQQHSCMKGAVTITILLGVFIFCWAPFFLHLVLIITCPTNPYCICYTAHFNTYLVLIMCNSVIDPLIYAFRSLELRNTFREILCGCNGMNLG

With `CCCC[C@@H]1NC(=O)[C@@H]2CSc3nnc(c4c3CCC3C(CC4)C3COC(=O)NCCOCCOCCNC(=O)CCOCCOCCOCCOCCOCCC(=O)NCCOCCOCCNC(=O)OCC3C4CCc5c6nnc(c5CCC43)SC[C@@H]3NC(=O)[C@H](CCCNC(=N)N)NC(=O)[C@H](CC(=O)O)NC(=O)[C@H](Cc4c[nH]c5ccccc45)NC(=O)[C@H](CCCNC(=N)N)NC(=O)[C@H](Cc4ccccc4)NC(=O)[C@H](Cc4cnc[nH]4)NC(=O)CNC(=O)[C@H](CCCC)NC(=O)[C@H](CS6)NC(=O)[C@H](CCCNC(=N)N)NC(=O)[C@H](Cc4c[nH]c5ccccc45)NC(=O)[C@H](CCCNC(=N)N)NC(=O)[C@H](Cc4ccccc4)NC(=O)[C@H](Cc4cnc[nH]4)NC3=O)SC[C@H](NC(=O)[C@H](CCCNC(=N)N)NC(=O)[C@H](CC(=O)O)NC(=O)[C@H](Cc3c[nH]c4ccccc34)NC(=O)[C@H](CCCNC(=N)N)NC(=O)[C@H](Cc3ccccc3)NC(=O)[C@H](Cc3cnc[nH]3)NC(=O)CNC1=O)C(=O)N[C@@H](Cc1cnc[nH]1)C(=O)N[C@@H](Cc1ccccc1)C(=O)N[C@@H](CCCNC(=N)N)C(=O)N[C@@H](Cc1c[nH]c3ccccc13)C(=O)N[C@@H](CCCNC(=N)N)C(=O)N2` (some centres not stated), the Ratio Ki in experiment [1] was 25; in experiment [3], 79. The Ki was 0.417 nM in [2], 10.2 nM in experiment [4] and 33.1 nM in experiment [5].
As to `CCCC[C@@H]1NC(=O)[C@@H]2CSc3nnc(c4c3CCC3C(CC4)C3COC(=O)NCCNC(=O)CCOCCOCCOCCOCCOCCC(=O)NCCNC(=O)OCC3C4CCc5c6nnc(c5CCC43)SC[C@@H]3NC(=O)[C@H](CCCNC(=N)N)NC(=O)[C@H](CC(=O)O)NC(=O)[C@H](Cc4c[nH]c5ccccc45)NC(=O)[C@H](CCCNC(=N)N)NC(=O)[C@H](Cc4ccccc4)NC(=O)[C@H](Cc4cnc[nH]4)NC(=O)CNC(=O)[C@H](CCCC)NC(=O)[C@H](CS6)NC(=O)[C@H](CCCNC(=N)N)NC(=O)[C@H](Cc4c[nH]c5ccccc45)NC(=O)[C@H](CCCNC(=N)N)NC(=O)[C@H](Cc4ccccc4)NC(=O)[C@H](Cc4cnc[nH]4)NC3=O)SC[C@H](NC(=O)[C@H](CCCNC(=N)N)NC(=O)[C@H](CC(=O)O)NC(=O)[C@H](Cc3c[nH]c4ccccc34)NC(=O)[C@H](CCCNC(=N)N)NC(=O)[C@H](Cc3ccccc3)NC(=O)[C@H](Cc3cnc[nH]3)NC(=O)CNC1=O)C(=O)N[C@@H](Cc1cnc[nH]1)C(=O)N[C@@H](Cc1ccccc1)C(=O)N[C@@H](CCCNC(=N)N)C(=O)N[C@@H](Cc1c[nH]c3ccccc13)C(=O)N[C@@H](CCCNC(=N)N)C(=O)N2` (some centres not stated), the Ratio Ki in experiment [1] was 17; in experiment [3], 47. The Ki in experiment [2] was 0.661 nM; in [4] it was 11.5 nM; in experiment [5] it was 30.9 nM.
In the case of `CCCC[C@@H]1NC(=O)[C@@H]2CSC/C(=N/OCC(=O)NCCOCCOCCOCCN=[N+]=[N-])CSC[C@H](NC(=O)[C@H](CCCNC(=N)N)NC(=O)[C@H](CC(=O)O)NC(=O)[C@H](Cc3c[nH]c4ccccc34)NC(=O)[C@H](CCCNC(=N)N)NC(=O)[C@H](Cc3ccccc3)NC(=O)[C@H](Cc3cnc[nH]3)NC(=O)CNC1=O)C(=O)N[C@@H](Cc1cnc[nH]1)C(=O)N[C@@H](Cc1ccccc1)C(=O)N[C@@H](CCCNC(=N)N)C(=O)N[C@@H](Cc1c[nH]c3ccccc13)C(=O)N[C@@H](CCCNC(=N)N)C(=O)N2`, the Ratio EC50 turned out to be 65 in [6] and 2 in experiment [7]. Further, the Ratio Ki in [1] was 14; in experiment [3], 79. In addition, the Ki in [2] was 0.389 nM; in experiment [4], 5.5 nM; in experiment [5] it was 30.9 nM. In addition, the results for the EC50 in [8], in experiment [9] and in [10] were 0.105 nM, 0.0468 nM and 3.02 nM, respectively.
For `CCCC[C@@H]1NC(=O)[C@@H]2CSc3nnc(c4c3CCC3C(CC4)C3COC(=O)NCCOCCOCCOCCNC(=O)OCC3C4CCc5c6nnc(c5CCC43)SC[C@@H]3NC(=O)[C@H](CCCNC(=N)N)NC(=O)[C@H](CC(=O)O)NC(=O)[C@H](Cc4c[nH]c5ccccc45)NC(=O)[C@H](CCCNC(=N)N)NC(=O)[C@H](Cc4ccccc4)NC(=O)[C@H](Cc4cnc[nH]4)NC(=O)CNC(=O)[C@H](CCCC)NC(=O)[C@H](CS6)NC(=O)[C@H](CCCNC(=N)N)NC(=O)[C@H](Cc4c[nH]c5ccccc45)NC(=O)[C@H](CCCNC(=N)N)NC(=O)[C@H](Cc4ccccc4)NC(=O)[C@H](Cc4cnc[nH]4)NC3=O)SC[C@H](NC(=O)[C@H](CCCNC(=N)N)NC(=O)[C@H](CC(=O)O)NC(=O)[C@H](Cc3c[nH]c4ccccc34)NC(=O)[C@H](CCCNC(=N)N)NC(=O)[C@H](Cc3ccccc3)NC(=O)[C@H](Cc3cnc[nH]3)NC(=O)CNC1=O)C(=O)N[C@@H](Cc1cnc[nH]1)C(=O)N[C@@H](Cc1ccccc1)C(=O)N[C@@H](CCCNC(=N)N)C(=O)N[C@@H](Cc1c[nH]c3ccccc13)C(=O)N[C@@H](CCCNC(=N)N)C(=O)N2` (some centres not stated), the Ratio Ki in experiment [1] is 17; in [3] it was 41. Also, the Ki is 2.24 nM in experiment [2], 37.2 nM in experiment [4] and 91.2 nM in experiment [5].
As for `CCCC[C@@H]1NC(=O)[C@@H]2CSc3nnc(c4c3CCC3C(CC4)C3COC(=O)NCCN)SC[C@H](NC(=O)[C@H](CCCNC(=N)N)NC(=O)[C@H](CC(=O)O)NC(=O)[C@H](Cc3c[nH]c4ccccc34)NC(=O)[C@H](CCCNC(=N)N)NC(=O)[C@H](Cc3ccccc3)NC(=O)[C@H](Cc3cnc[nH]3)NC(=O)CNC1=O)C(=O)N[C@@H](Cc1cnc[nH]1)C(=O)N[C@@H](Cc1ccccc1)C(=O)N[C@@H](CCCNC(=N)N)C(=O)N[C@@H](Cc1c[nH]c3ccccc13)C(=O)N[C@@H](CCCNC(=N)N)C(=O)N2` (some centres not stated) (cyclo(CHFRWRC[Nle]GHFRWDR); linker 1-7 via X8), the Ratio Ki in experiment [1] was determined as 115; in experiment [3], 166. The figures for the Ki in experiment [2], in experiment [4] and in experiment [5] were less than 0.0055 nM, 0.631 nM and 0.912 nM, respectively.
On to `CCCC[C@@H]1NC(=O)[C@@H]2CSc3nnc(c4c3CCC3C(CC4)C3COC(=O)NCCOCCOCCOCCNC(=O)OCC3C4CCc5nnn(CC(=O)N6CCCC[C@H]6C6(O)CN(C(=O)c7ccc(F)c(F)c7Nc7ccc(I)cc7F)C6)c5CCC43)SC[C@H](NC(=O)[C@H](CCCNC(=N)N)NC(=O)[C@H](CC(=O)O)NC(=O)[C@H](Cc3c[nH]c4ccccc34)NC(=O)[C@H](CCCNC(=N)N)NC(=O)[C@H](Cc3ccccc3)NC(=O)[C@H](Cc3cnc[nH]3)NC(=O)CNC1=O)C(=O)N[C@@H](Cc1cnc[nH]1)C(=O)N[C@@H](Cc1ccccc1)C(=O)N[C@@H](CCCNC(=N)N)C(=O)N[C@@H](Cc1c[nH]c3ccccc13)C(=O)N[C@@H](CCCNC(=N)N)C(=O)N2` (some centres not stated) (cyclo(CHFRWRC[Nle]GHFRWDR); linker 1-7 via X9), for which the Ratio Ki was determined as 24 in [1] and 79 in experiment [3]. Moreover, the Ki was 2.14 nM in experiment [2], 51.3 nM in experiment [4] and 170 nM in [5].
Take `CCCC[C@@H]1NC(=O)[C@@H]2CSCc3cccc(c3)CSC[C@H](NC(=O)[C@H](CCCNC(=N)N)NC(=O)[C@H](CC(=O)O)NC(=O)[C@H](Cc3c[nH]c4ccccc34)NC(=O)[C@H](CCCNC(=N)N)NC(=O)[C@H](Cc3ccccc3)NC(=O)[C@H](Cc3cnc[nH]3)NC(=O)CNC1=O)C(=O)N[C@@H](Cc1cnc[nH]1)C(=O)N[C@@H](Cc1ccccc1)C(=O)N[C@@H](CCCNC(=N)N)C(=O)N[C@@H](Cc1c[nH]c3ccccc13)C(=O)N[C@@H](CCCNC(=N)N)C(=O)N2` (cyclo(CHFRWRC[Nle]GHFRWDR); linker 1-7 via mXylylene): the Ki in experiment [2] is 0.407 nM; in experiment [4], 13.5 nM. Moreover, the EC50 in experiment [8] was 0.309 nM; in experiment [9], 0.0871 nM.
Take `CCCC[C@@H]1NC(=O)[C@@H]2CSCc3ccccc3CSC[C@H](NC(=O)[C@H](CCCNC(=N)N)NC(=O)[C@H](CC(=O)O)NC(=O)[C@H](Cc3c[nH]c4ccccc34)NC(=O)[C@H](CCCNC(=N)N)NC(=O)[C@H](Cc3ccccc3)NC(=O)[C@H](Cc3cnc[nH]3)NC(=O)CNC1=O)C(=O)N[C@@H](Cc1cnc[nH]1)C(=O)N[C@@H](Cc1ccccc1)C(=O)N[C@@H](CCCNC(=N)N)C(=O)N[C@@H](Cc1c[nH]c3ccccc13)C(=O)N[C@@H](CCCNC(=N)N)C(=O)N2` (cyclo(CHFRWRC[Nle]GHFRWDR); linker 1-7 via oXylylene): the Ki in experiment [2] was 1.58 nM; in experiment [4], 26.3 nM. Moreover, the EC50 is 0.347 nM in experiment [8] and 0.195 nM in experiment [9].
With `CCCC[C@@H]1NC(=O)[C@@H]2CSCc3ccc(cc3)CSC[C@H](NC(=O)[C@H](CCCNC(=N)N)NC(=O)[C@H](CC(=O)O)NC(=O)[C@H](Cc3c[nH]c4ccccc34)NC(=O)[C@H](CCCNC(=N)N)NC(=O)[C@H](Cc3ccccc3)NC(=O)[C@H](Cc3cnc[nH]3)NC(=O)CNC1=O)C(=O)N[C@@H](Cc1cnc[nH]1)C(=O)N[C@@H](Cc1ccccc1)C(=O)N[C@@H](CCCNC(=N)N)C(=O)N[C@@H](Cc1c[nH]c3ccccc13)C(=O)N[C@@H](CCCNC(=N)N)C(=O)N2` (cyclo(CHFRWRC[Nle]GHFRWDR); linker 1-7 via pXylylene), the results for the Ki in experiment [2] and in experiment [4] were 0.245 nM and 13.8 nM, respectively. Moreover, the EC50 was 0.331 nM in [8] and 0.0891 nM in experiment [9].
